Experimental data: patent publication US8304422B2, “Compositions and methods for inhibition of the JAK pathway” (Rigel Pharmaceuticals, Inc., priority 2007, dated 2012)

test system: BaF3 V617F cells; UKE-1; test: Proliferation Assay (Cell Titer-Glo; Example 7); format: cell-based; details: proliferation 72 hours, inhibit JAK2 activity, cell line (BaF3 V617F or UKE-1) not stated
Description: BaF3 V617F cells are maintained and plated in RPMI with 10% FBS. Plating density for these cells is 1×10^5 cells/mL.
UKE-1 are maintained and plated in Iscove's DMEM containing 10% FBS, 10% equine serum, 1% penicillin/streptomycin and 1 uM hydrocortisone. Plating density for these cells is 0.4×10^6 cells/mL
The cells were resuspended in a corresponding medium at a required cell density (see above). 100μ of cell suspension was added to each well of a flat bottom 96 well white plate. The compound was serially diluted in DMSO from 5 mM in 3-fold dilutions, and then diluted 1:250 in the RPMI 1640 medium containing 5% FBS and pen/strep. 100 μL of resulting 2× compound solution was added per well in duplicate and the cells were allowed to proliferate for 72 hours at 37° C.
Proliferation was measured using Cell Titer-Glo. The substrate was thawed and allowed to come to room temperature. After removal of top 100 μL of medium from each well, 100 μL of the premixed Cell Titer-Glo reagent was added to each well. The plates were mixed on an orbital shaker for three minutes to induce lysis and incubated at ambient temperature for an additional five minutes to allow the signal to equilibrate. The Luminescence was read on the Wallac Plate Reader.
The results of the ability of the compounds of the invention to inhibit JAK2 activity, when tested in the above assay, are shown in the following Table XI wherein the level of activity (i.e., the IC50) for each compound is indicated in Table XI. The compound numbers in Table XI refers to the compounds disclosed herein as being prepared by the methods disclosed herein: […]

IC50 [nM]	Molecule
73.9	5-Chloro-N4-[4-[N-cyclopropylsulfonyl)-N′-(3-(4-morpholine)propion-1-yl)amino]methylphenyl]-N2-(3,5-dimethyl-4-methoxyphenyl)-2,4-pyrimidinediamine [II-141]
276	CCNS(=O)(=O)NCc1ccc(Nc2nc(Nc3ccc(N4CCN(C)CC4)cc3)ncc2C)cc1 [II-122, N4-[(4-(Ethylamino)sulfonylamino)methylphenyl]-5-methyl-N2-[4-(4-methyl-1-piperazinyl)phenyl]-2,4-pyrimidinediamine]
1810	Cc1cnc(Nc2ccc(N3CCN(C)CC3)nc2)nc1Nc1ccc(CCNS(=O)(=O)C2CC2)cc1 [II-69]
120	5-Chloro-N4-[4-(N-cyclopropylsulfonylamino)methylphenyl]-N2-[5-methyl-4-(N-methylpiperizin-4-yl)pyridin-3-yl]-2,4-pyrimidinediamine [II-225]
595	Cc1cnc(Nc2ccc(N3CCN(C)CC3)cc2F)nc1Nc1ccc(CCNS(=O)(=O)C2CC2)cc1 [II-73]
4140	Cc1cc(N2CCN(C)CC2)ccc1Nc1ncc(C)c(Nc2ccc(CCNS(=O)(=O)C3CC3)cc2)n1 [II-68]
1120	Cc1cnc(Nc2ccc(C3=NCCN3)cc2)nc1Nc1ccc2c(c1)C(NS(=O)(=O)C1CC1)CC2 (racemic) [V-6, (+/−)-N4-[1-(Cyclopropylsulfonylamino)indan-6-yl]-N2-[4-(4,5-dihydro-1H-imidazol-2-yl)phenyl]-5-methyl-2,4-pyrimidinediamine]
1320	Cc1cc(CNS(=O)(=O)C2CC2)cc(Nc2nc(Nc3ccc(N4CCN(C5CC6CCC5C6)CC4)cc3)ncc2C)c1 (stereo not shown) [II-77, N-(3-(2-(4-(4-(bicyclo[2.2.1]heptan-2-yl)piperazin-1-yl)phenylamino)-5-methylpyrimidin-4-ylamino)-5-methylbenzyl)cyclopropanesulfonamide]
1320	CN1CCN(c2ccc(Nc3ncc(Cl)c(Nc4ccc(CNS(N)(=O)=O)cc4)n3)cc2)CC1 [II-148, N4-[4-(Aminosulfonylamino)methylphenyl]-5-chloro-N2-[4-(4-methyl-1-piperazinyl)phenyl]-2,4-pyrimidinediamine]
1500	5-Chloro-N4-[4-(N-cyclopropylsulfonylamino)methylphenyl]-N2-[3-methyl-4-(N-methylpiperizin-4-yl)phenyl]-2,4-pyrimidinediamine [II-203]
307	COc1c(C)cc(Nc2ncc(Cl)c(Nc3ccc(CNS(=O)(=O)C4CC4)cc3C)n2)cc1C [II-150, 5-Chloro-N2-(3,5-dimethyl-4-methoxyphenyl)-N4-[2-methyl-4-(N-cyclopropylsulfonylamino)methylphenyl]-2,4-pyrimidinediamine]
323	CCCOc1c(C)cc(Nc2ncc(C)c(Nc3ccc(CNS(=O)(=O)NC4CC4)cc3)n2)cc1C [II-165, N4-[4-((N-Cyclopropylamino)sulfonylamino)methylphenyl]-N2-(3,5-dimethyl-4-propoxyphenyl)-5-Methyl-2,4-pyrimidinediamine]
238	CCCOc1c(C)cc(Nc2ncc(Cl)c(Nc3ccc(CNS(=O)(=O)C4CC4)cc3)n2)cc1C [II-221, 5-Chloro-N4-[4-(N-cyclopropylsulfonylamino)methylphenyl]-N2-[3,5-dimethyl-4-(1-propoxy)phenyl]-2,4-pyrimidinediamine]
643	Cc1cc(CNS(=O)(=O)NC2CC2)ccc1Nc1nc(Nc2cc(C)c(OC(C)C)c(C)c2)ncc1Cl [II-177, 5-Chloro-N2-(3,5-dimethyl-4-(1-methylethoxy)phenyl)-N4-[2-methyl-4-((N-cyclopropylamino)sulfonylamino)methylphenyl]-2,4-pyrimidinediamine]
698	Cc1cc(OC(C)C)cc(C)c1Nc1ncc(Cl)c(Nc2ccc(CCNS(=O)(=O)C3CC3)cc2)n1 [II-48, 5-Chloro-N4[4-(N-cyclopropylsulfonylamino)ethylphenyl]-N2-[4-(2,6-dimethyl-isopropoxy)phenyl]-2,4-pyrimidinediamine]
357	Cc1cc(CNS(=O)(=O)C2CC2)ccc1Nc1nc(Nc2ccc(N3CCN(C)CC3)cc2)ncc1Cl [II-152, 5-Chloro-N4-[2-methyl-4-(N-cyclopropylsulfonylamino)methylphenyl]-N2-[4-(4-methyl-1-piperazinyl)phenyl]-2,4-pyrimidinediamine]
1300	O=S(=O)(NCc1ccc(Nc2nc(Nc3ccc(-c4cccnc4)cc3)ncc2Cl)cc1)C1CC1 [II-193, 5-Chloro-N4-[4-(N-cyclopropylsulfonylamino)methylphenyl]-N2-[4-(3-pyridinyl)phenyl]-2,4-pyrimidinediamine]
91	CN1CCN(c2ccc(Nc3ncc(Cl)c(Nc4ccc(CNS(=O)(=O)N(C)C)cc4)n3)cc2)CC1 [II-96, 5-Chloro-N4-[(4-(dimethylamino)sulfonylamino)methylphenyl]-N2-[4-(4-methyl-1-piperazinyl)phenyl]-2,4-pyrimidinediamine]
339	CC1CN(CCOc2ccc(Nc3ncc(Cl)c(Nc4ccc(CCNS(=O)(=O)C5CC5)cc4)n3)cc2)CC(C)O1 (stereo not shown) [II-49]
388	Cc1cnc(Nc2cc(C3CC3)n[nH]2)nc1Nc1ccc(CNS(=O)(=O)C2CC2)cc1 [VIII-11, 5-Methyl-N4-[4-(N-cyclopropylsulfonylamino)methylphenyl]-N2-[5-cyclopropylpyrazol-3-yl)-2,4-pyrimidinediamine]
2160	Cc1cnc(Nc2ccc(C3CCN(C)CC3)cc2)nc1Nc1ccc2c(c1)[C@H](NS(C)(=O)=O)CC2 [V-11, (1R)-5-Methyl-N2-[4-(1-methyl-4-piperidinyl)pheny]-N4-[1-(methylsulfonyl)aminoindan-6-yl]-2,4-pyrimidinediamine]
391	Cc1cnc(Nc2ccc(N3CCN(C4CC5CCC4C5)CC3)cc2)nc1Nc1ccc(CNS(=O)(=O)C2CC2)cc1 (stereo not shown) [II-60, N-(4-(2-(4-(4-(bicyclo[2.2.1]heptan-2-yl)piperazin-1-yl)phenylamino)-5-methylpyrimidin-4-ylamino)benzyl)cyclopropanesulfonamide]
546	COc1cc(Nc2ncc(Cl)c(Nc3cccc(CNS(=O)(=O)C4CC4)c3)n2)cc(OC)c1OC [II-189, 5-Chloro-N4-[3-(N-cyclopropylsulfonylamino)methylphenyl]-N2-[3,4,5-trimethoxyphenyl]-2,4-pyrimidinediamine]
755	Cc1cc(Nc2ncc(C(F)(F)F)c(Nc3ccc(CNS(=O)(=O)C4CC4)cc3)n2)ccc1N1CCN(C)CC1 [II-128, N4-[4-(N-Cyclopropylsulfonylamino)methylphenyl]-N2-[3-methyl-4-(4-methyl-1-piperazinyl)phenyl]-5-trifluoromethyl-2,4-pyrimidinediamine]
673	COc1c(C)cc(Nc2ncc(C)c(Nc3ccc4c(c3)[C@H](NS(C)(=O)=O)CC4)n2)cc1C [V-10]
354	COc1c(C)cc(Nc2ncc(Cl)c(Nc3ccc(CNS(=O)(=O)NC4CC4)cc3C)n2)cc1C [II-175, 5-Chloro-N2-(3,5-dimethyl-4-methoxyphenyl)-N4-[2-methyl-4-((N-cyclopropylamino)sulfonylamino)methylphenyl]-2,4-pyrimidinediamine]
180	CCNS(=O)(=O)NCc1ccc(Nc2nc(Nc3ccc(N4CCN(C)CC4)cc3)ncc2Cl)cc1 [II-114, 5-Chloro-N4-[(4-(ethylamino)sulfonylamino)methylphenyl]-N2-[4-(4-methyl-1-piperazinyl)phenyl]-2,4-pyrimidinediamine]
644	Cc1nc2cc(Nc3ncc(Cl)c(Nc4cccc(CNS(=O)(=O)C5CC5)c4)n3)ccc2[nH]1 [III-7, 5-Chloro-N4-[3-(N-cyclopropylsulfonylaminomethyl)phenyl]-N2-[2-methylbenzamidazol-5-yl]-2,4-pyrimidinediamine]
135	5-Chloro-N4-[4-(N-cyclopropylsulfonylamino)methylphenyl]-N2-[4-(N-ethylpiperizin-4-yl)phenyl]-2,4-pyrimidinediamine [II-205]
350	COc1c(C)cc(Nc2ncc(Cl)c(Nc3ccc(CNS(=O)(=O)N(C)C)cc3)n2)cc1Cl [II-93, 5-Chloro-N2-(3-chloro-4-methoxy-5-methylphenyl)-N4-[(4-(dimethylamino)sulfonylamino)methylphenyl]-2,4-pyrimidinediamine]

Molecule	IC50 [nM]
5-Chloro-N2-[3,4-dimethyl-4-(2-(4-morpholinyl)ethoxy)phenyl]-N4-[2-methyl-4-((N-cyclopropylamino)sulfonylamino)methylphenyl]-2,4-pyrimidinediamine [II-183]	142
5-Chloro-N4-[3-(N-tert-butylsulfonyl)phenyl]-N2-[3,5-dimethyl-4-(2-(1-morpholino)ethoxyphenyl]-2,4-pyrimidinediamine [I-21]	243
5-Chloro-N4-[4-(N-cyclopropylsulfonylamino)methylphenyl]-N2-[3,4-dimethyl-4-(2-(4-morpholinyl)ethoxy)phenyl]-2,4-pyrimidinediamine [II-160]	29.9
Cc1cnc(Nc2cnccc2N2CCN(C)CC2)nc1Nc1ccc(CNS(=O)(=O)C2CC2)cc1 [II-215, 5-Methyl-N4-[4-(N-cyclopropylsulfonylamino)methylphenyl]-N2-[4-(N-methylpiperizin-4-yl)pyridine-3-yl]-2,4-pyrimidinediamine]	1520
